Legend:
[1] = target: T1, Type-2 angiotensin II receptor (Homo sapiens, UniProt P50052); type: cell-based; settings: cho-k1; further: in other assays of this panel Not Active means under 50% inhibition at 10 µM
T1 sequence (P50052 whole entry): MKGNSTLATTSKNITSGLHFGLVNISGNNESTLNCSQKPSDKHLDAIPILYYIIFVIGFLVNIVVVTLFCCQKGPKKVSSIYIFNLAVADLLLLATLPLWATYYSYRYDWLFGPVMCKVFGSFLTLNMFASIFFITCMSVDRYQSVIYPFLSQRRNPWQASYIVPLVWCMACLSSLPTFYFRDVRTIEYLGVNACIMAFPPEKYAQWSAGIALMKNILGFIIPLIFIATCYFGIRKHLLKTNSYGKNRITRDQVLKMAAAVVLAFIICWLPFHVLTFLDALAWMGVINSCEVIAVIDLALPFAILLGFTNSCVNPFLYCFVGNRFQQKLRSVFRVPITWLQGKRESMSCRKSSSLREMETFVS

Nitric oxide synthase 1 = Nitric oxide synthase 1 (Rattus norvegicus, UniProt P29476); type: tissue-based, Cerebellum; further: in other assays of this panel Not Active means under 50% inhibition at 10 µM
[2] = target: Kappa-type opioid receptor (Homo sapiens, UniProt P41145); test: DRUGMATRIX: Opiate kappa (OP2, KOP) radioligand binding (ligand: [3H] Diprenorphine); type: cell membranes, HEK293, Membrane; settings: hek293; Not Active = under 50% inhibition at 10 µM
[3] = DRUGMATRIX: Phorbol Ester radioligand binding (ligand: [3H] PDBu); type: cell membranes, Mus musculus, ICR, Brain, Membrane; settings: Not Active = under 50% inhibition at 10 µM
[4] = DRUGMATRIX: Phosphodiesterase PDE4 enzyme inhibition (substrate: [3H]cAMP + cAMP); settings: u-937; Not Active = under 50% inhibition at 10 µM
[5] = target: Mitogen-activated protein kinase 1 (Homo sapiens, UniProt P28482); test: DRUGMATRIX: Protein Serine/Threonine Kinase, ERK2 enzyme inhibition (substrate: Myelin Basic Protein); set-up: species or system Escherichia coli; settings: Not Active = under 50% inhibition at 10 µM
[6] = target: Receptor tyrosine-protein kinase erbB-2 (Homo sapiens, UniProt P04626); test: biochemical; type: cell-based, Insect cells; settings: insect cells;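 further: inhibition of HER2 kinase enzyme activity, measured with Poly(Glu:Tyr) as the phosphorylation substrate; in other assays of this panel Not Active means under 50% inhibition at 10 µM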
Cytochrome P450 2A6 = target: T2, Cytochrome P450 2A6 (Homo sapiens, UniProt P11509); settings: bti-tn-5b1-4; further: in other assays of this panel Not Active means under 50% inhibition at 10 µM
T2 sequence (P11509 whole entry): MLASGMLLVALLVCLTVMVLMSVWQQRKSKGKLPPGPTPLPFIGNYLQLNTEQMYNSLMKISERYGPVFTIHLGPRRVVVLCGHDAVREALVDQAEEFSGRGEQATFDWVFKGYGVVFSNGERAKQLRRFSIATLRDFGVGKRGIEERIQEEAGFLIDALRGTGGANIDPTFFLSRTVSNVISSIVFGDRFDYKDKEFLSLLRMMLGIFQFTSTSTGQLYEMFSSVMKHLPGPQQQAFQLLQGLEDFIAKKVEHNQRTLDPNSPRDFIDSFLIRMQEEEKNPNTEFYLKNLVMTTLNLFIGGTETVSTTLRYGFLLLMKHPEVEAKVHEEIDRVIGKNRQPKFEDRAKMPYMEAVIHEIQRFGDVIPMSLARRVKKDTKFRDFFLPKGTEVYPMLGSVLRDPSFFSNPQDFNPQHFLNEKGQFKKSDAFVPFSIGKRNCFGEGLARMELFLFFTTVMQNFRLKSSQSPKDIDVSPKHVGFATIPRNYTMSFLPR

Chain of Mitogen-activated protein kinase 1 (P28482 whole entry): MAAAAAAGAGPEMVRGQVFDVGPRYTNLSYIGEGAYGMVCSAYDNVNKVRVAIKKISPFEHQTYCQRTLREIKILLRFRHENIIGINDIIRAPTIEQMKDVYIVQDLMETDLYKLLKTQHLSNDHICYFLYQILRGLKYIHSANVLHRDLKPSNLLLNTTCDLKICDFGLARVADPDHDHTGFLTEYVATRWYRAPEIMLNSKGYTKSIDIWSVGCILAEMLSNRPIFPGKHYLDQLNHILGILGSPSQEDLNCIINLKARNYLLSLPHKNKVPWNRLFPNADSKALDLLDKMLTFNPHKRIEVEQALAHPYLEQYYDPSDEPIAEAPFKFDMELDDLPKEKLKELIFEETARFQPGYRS
Chain of Kappa-type opioid receptor (P41145 whole entry): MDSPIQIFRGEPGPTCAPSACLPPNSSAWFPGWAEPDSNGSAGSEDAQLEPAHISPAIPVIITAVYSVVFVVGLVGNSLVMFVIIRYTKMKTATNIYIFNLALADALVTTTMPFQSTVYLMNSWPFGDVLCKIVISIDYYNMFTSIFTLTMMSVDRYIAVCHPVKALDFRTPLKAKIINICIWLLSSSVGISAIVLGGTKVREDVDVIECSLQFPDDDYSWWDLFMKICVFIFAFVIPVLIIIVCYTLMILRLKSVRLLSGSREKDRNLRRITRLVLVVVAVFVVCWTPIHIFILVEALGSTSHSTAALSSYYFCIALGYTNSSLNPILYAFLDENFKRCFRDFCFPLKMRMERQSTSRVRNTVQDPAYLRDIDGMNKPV
Chain of Receptor tyrosine-protein kinase erbB-2 (P04626 whole entry): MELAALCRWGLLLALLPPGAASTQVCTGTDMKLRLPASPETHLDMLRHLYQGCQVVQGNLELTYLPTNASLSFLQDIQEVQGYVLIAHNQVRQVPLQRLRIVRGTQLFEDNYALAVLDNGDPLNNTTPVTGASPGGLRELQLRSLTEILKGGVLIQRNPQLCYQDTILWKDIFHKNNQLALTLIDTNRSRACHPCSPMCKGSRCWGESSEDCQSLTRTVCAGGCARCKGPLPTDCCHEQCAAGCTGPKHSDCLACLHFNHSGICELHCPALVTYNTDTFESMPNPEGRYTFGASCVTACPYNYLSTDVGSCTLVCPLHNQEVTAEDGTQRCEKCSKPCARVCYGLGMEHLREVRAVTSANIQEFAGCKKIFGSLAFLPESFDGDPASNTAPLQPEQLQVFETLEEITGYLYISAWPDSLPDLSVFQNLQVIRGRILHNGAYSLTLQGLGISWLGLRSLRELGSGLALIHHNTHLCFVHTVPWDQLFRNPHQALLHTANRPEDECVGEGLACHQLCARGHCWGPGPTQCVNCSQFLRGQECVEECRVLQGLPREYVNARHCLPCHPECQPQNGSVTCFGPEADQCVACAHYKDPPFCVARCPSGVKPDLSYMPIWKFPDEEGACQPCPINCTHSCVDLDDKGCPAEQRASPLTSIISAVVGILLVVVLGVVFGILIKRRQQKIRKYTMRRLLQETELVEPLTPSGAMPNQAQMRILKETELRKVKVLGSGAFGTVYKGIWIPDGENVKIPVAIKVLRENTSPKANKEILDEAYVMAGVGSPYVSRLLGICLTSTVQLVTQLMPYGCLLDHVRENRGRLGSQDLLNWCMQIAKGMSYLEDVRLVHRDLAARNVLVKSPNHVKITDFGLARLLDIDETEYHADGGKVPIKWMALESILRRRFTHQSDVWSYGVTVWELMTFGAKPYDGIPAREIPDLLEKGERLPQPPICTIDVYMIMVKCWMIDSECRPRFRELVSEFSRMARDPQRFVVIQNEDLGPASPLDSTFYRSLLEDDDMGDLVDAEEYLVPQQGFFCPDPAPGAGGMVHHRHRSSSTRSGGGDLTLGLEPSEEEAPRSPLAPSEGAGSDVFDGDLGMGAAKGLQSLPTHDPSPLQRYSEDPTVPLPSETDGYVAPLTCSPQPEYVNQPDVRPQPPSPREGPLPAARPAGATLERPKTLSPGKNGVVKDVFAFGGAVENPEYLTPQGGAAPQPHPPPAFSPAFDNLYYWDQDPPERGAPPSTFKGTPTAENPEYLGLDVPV
Chain of Nitric oxide synthase 1 (P29476 whole entry): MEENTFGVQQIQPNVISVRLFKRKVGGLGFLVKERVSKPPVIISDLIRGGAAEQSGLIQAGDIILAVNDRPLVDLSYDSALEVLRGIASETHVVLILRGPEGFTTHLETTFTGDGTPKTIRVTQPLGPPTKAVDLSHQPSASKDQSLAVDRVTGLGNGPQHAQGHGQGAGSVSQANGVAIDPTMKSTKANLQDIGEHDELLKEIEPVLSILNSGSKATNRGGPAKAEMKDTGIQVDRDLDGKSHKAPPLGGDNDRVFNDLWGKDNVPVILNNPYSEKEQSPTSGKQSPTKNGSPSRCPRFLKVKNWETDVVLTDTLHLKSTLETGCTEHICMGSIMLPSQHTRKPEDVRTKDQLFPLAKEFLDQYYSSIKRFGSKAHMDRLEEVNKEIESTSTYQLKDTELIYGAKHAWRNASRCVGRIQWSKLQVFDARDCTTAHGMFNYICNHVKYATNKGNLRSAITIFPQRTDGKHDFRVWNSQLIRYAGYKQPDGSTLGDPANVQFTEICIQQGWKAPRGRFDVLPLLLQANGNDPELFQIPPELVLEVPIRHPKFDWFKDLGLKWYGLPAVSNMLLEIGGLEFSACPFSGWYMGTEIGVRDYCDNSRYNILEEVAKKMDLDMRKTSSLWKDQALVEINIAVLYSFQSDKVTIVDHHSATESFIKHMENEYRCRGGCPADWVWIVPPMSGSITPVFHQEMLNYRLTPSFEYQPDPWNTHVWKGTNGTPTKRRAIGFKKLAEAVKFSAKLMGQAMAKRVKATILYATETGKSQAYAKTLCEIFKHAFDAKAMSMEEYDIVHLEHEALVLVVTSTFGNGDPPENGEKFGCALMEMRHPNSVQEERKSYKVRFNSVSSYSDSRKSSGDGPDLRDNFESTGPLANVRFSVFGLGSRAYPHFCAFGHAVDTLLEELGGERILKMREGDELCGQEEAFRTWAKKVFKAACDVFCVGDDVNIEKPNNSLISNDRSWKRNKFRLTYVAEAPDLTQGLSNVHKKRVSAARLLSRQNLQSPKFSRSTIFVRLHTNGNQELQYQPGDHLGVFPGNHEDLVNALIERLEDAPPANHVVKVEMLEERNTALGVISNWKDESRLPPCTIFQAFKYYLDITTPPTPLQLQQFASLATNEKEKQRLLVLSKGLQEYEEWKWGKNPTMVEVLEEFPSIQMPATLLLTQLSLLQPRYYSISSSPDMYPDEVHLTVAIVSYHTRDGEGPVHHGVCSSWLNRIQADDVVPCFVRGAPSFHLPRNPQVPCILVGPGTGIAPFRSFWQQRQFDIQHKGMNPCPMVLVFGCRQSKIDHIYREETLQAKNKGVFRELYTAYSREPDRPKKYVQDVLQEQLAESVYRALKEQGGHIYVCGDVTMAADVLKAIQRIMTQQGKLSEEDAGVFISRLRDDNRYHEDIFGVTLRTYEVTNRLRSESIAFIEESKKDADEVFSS

CC(=O)O[C@@]12CO[C@@H]1C[C@H](O)[C@@]1(C)C(=O)[C@H](O)C3=C(C)[C@@H](OC(=O)[C@H](O)[C@@H](NC(=O)OC(C)(C)C)c4ccccc4)C[C@@](O)([C@@H](OC(=O)c4ccccc4)[C@H]21)C3(C)C.O.O.O [DOCETAXEL]
Not Active: IC50 [1] | IC50 (Nitric oxide synthase 1) | IC50 [2] | IC50 [3] | Ki [3] | IC50 [4] | Ki [4] | IC50 [5] | IC50 [6] | IC50 (Cytochrome P450 2A6) | Ki (Cytochrome P450 2A6)

CC(C)CN(C[C@@H](O)[C@H](Cc1ccccc1)NC(=O)O[C@H]1CCOC1)S(=O)(=O)c1ccc(N)cc1
Not Active: IC50 [1] | IC50 (Nitric oxide synthase 1) | IC50 [2] | IC50 [3] | Ki [3] | IC50 [4] | Ki [4] | IC50 [5] | IC50 [6] | IC50 (Cytochrome P450 2A6) | Ki (Cytochrome P450 2A6)

C[C@](N)(Cc1ccc(O)c(O)c1)C(=O)O [METHYLDOPA]
Not Active: IC50 [1] | IC50 (Nitric oxide synthase 1) | IC50 [2] | IC50 [3] | Ki [3] | IC50 [4] | Ki [4] | IC50 [5] | IC50 [6] | IC50 (Cytochrome P450 2A6) | Ki (Cytochrome P450 2A6)

Nc1nc(N)nc(-c2cc(Cl)ccc2Cl)n1.O=C(O)/C=C\C(=O)O [IRSOGLADINE MALEATE]
Not Active: IC50 [1] | IC50 (Nitric oxide synthase 1) | IC50 [2] | IC50 [3] | Ki [3] | IC50 [4] | Ki [4] | IC50 [5] | IC50 [6] | IC50 (Cytochrome P450 2A6) | Ki (Cytochrome P450 2A6)

Nc1ncn([C@@H]2O[C@H](CO)[C@@H](O)[C@H]2O)c(=O)n1 [AZACITIDINE]
Not Active: IC50 [1] | IC50 (Nitric oxide synthase 1) | IC50 [2] | IC50 [3] | Ki [3] | IC50 [4] | Ki [4] | IC50 [5] | IC50 [6] | IC50 (Cytochrome P450 2A6) | Ki (Cytochrome P450 2A6)

CCCCN1CCCC[C@H]1C(=O)Nc1c(C)cccc1C [LEVOBUPIVACAINE]
Not Active: IC50 [1] | IC50 (Nitric oxide synthase 1) | IC50 [2] | IC50 [3] | Ki [3] | IC50 [4] | Ki [4] | IC50 [5] | IC50 [6] | IC50 (Cytochrome P450 2A6) | Ki (Cytochrome P450 2A6)

CC(C)C(=O)Nc1ccc([N+](=O)[O-])c(C(F)(F)F)c1 [FLUTAMIDE]
Not Active: IC50 [1] | IC50 (Nitric oxide synthase 1) | IC50 [2] | IC50 [3] | Ki [3] | IC50 [4] | Ki [4] | IC50 [5] | IC50 [6] | IC50 (Cytochrome P450 2A6) | Ki (Cytochrome P450 2A6)

CC(C)[C@H]1C(=O)N2CCC[C@H]2[C@]2(O)O[C@](NC(=O)[C@@H]3C=C4c5cccc6[nH]cc(c56)C[C@H]4N(C)C3)(C(C)C)C(=O)N12 [ERGOCORNINE]
Not Active: IC50 [1] | IC50 (Nitric oxide synthase 1) | IC50 [2] | IC50 [3] | Ki [3] | IC50 [4] | Ki [4] | IC50 [5] | IC50 [6] | IC50 (Cytochrome P450 2A6) | Ki (Cytochrome P450 2A6)

CC(C)(Oc1ccc(Cl)cc1)C(=O)O [CLOFIBRIC ACID]
Not Active: IC50 [1] | IC50 (Nitric oxide synthase 1) | IC50 [2] | IC50 [3] | Ki [3] | IC50 [4] | Ki [4] | IC50 [5] | IC50 [6] | IC50 (Cytochrome P450 2A6) | Ki (Cytochrome P450 2A6)

CCCC1O[C@@H]2C[C@H]3[C@@H]4CCC5=CC(=O)C=C[C@]5(C)[C@H]4[C@@H](O)C[C@]3(C)[C@]2(C(=O)CO)O1 (some centres undefined) [BUDESONIDE]
Not Active: IC50 [1] | IC50 (Nitric oxide synthase 1) | IC50 [2] | IC50 [3] | Ki [3] | IC50 [4] | Ki [4] | IC50 [5] | IC50 [6] | IC50 (Cytochrome P450 2A6) | Ki (Cytochrome P450 2A6)

O=C(CCCN1CC=C(n2c(=O)[nH]c3ccccc32)CC1)c1ccc(F)cc1 [DROPERIDOL]
Not Active: IC50 [1] | IC50 (Nitric oxide synthase 1) | IC50 [2] | IC50 [3] | Ki [3] | IC50 [4] | Ki [4] | IC50 [5] | IC50 [6] | IC50 (Cytochrome P450 2A6) | Ki (Cytochrome P450 2A6)

Clc1cccc(Cl)c1NC1=NCCN1 [CLONIDINE]
Not Active: IC50 [1] | IC50 (Nitric oxide synthase 1) | IC50 [2] | IC50 [3] | Ki [3] | IC50 [4] | Ki [4] | IC50 [5] | IC50 [6] | IC50 (Cytochrome P450 2A6) | Ki (Cytochrome P450 2A6)

Cc1onc(O)c1CC(N)C(=O)O (racemic) [(R,S)-AMPA]
Not Active: IC50 [1] | IC50 (Nitric oxide synthase 1) | IC50 [2] | IC50 [3] | Ki [3] | IC50 [4] | Ki [4] | IC50 [5] | IC50 [6] | IC50 (Cytochrome P450 2A6) | Ki (Cytochrome P450 2A6)

CCOC(=O)C1=C(COCCN)NC(C)=C(C(=O)OC)C1c1ccccc1Cl (centres undefined) [AMLODIPINE]
Not Active: IC50 [1] | IC50 (Nitric oxide synthase 1) | IC50 [2] | IC50 [3] | Ki [3] | IC50 [4] | Ki [4] | IC50 [5] | IC50 [6] | IC50 (Cytochrome P450 2A6) | Ki (Cytochrome P450 2A6)

Source: ChEMBL document CHEMBL1909046, “DrugMatrix in vitro pharmacology data”
